From patent US20050074879A1, “Antisense oligonucleotide modulation of STAT3 expression” (priority 2000, published 2005)
Oligonucleotides are written 5' to 3', each unit as a sugar letter and its base; * is a phosphorothioate linkage, no mark a phosphodiester; rarer units and linkages stand in square brackets, end groups in braces. Plain capitals give the bases only. e = 2'-O-(2-methoxyethyl) (MOE); [5mC] = 5-methylcytosine; d = 2'-deoxy (DNA)

Assays:
Assay type in all cases: cell-based
Human STAT3 mRNA [1] = test: Human STAT3 mRNA dose response in T-24 cells, real-time PCR with PPS 2033 (Table 19); conditions: 16 hours, − decrease, + increase relative to untreated control
Method: The dose-response was repeated in T-24 cells and gene target quantities were measured using a different primer-probe set, called PPS 2033 herein. PPS 2033 comprises probes and primers to human STAT3 were designed to hybridize to a human STAT3 sequence, using published sequence information (incorporated herein as SEQ ID NO: XXX). For PPS 2033 the PCR primers were: forward primer: GAGGCCCGCCCAACA (SEQ ID NO: 397) reverse primer: […] (SEQ ID NO: 398) and the PCR probe was: FAM-CTGCCTAGATCGGC-TAMRA (SEQ ID NO: 399) where FAM is the fluorescent reporter dye and TAMRA is the quencher dye. Gene target quantities obtained by real time RT-PCR are normalized by quantifying total RNA using RiboGreen™ (Molecular Probes, Inc. Eugene, Oreg.). Control oligonucleotides used were ISIS 129695 (SEQ ID NO: 391), ISIS 129694 (SEQ ID NO: 392), ISIS 129690 (SEQ ID NO: 393), ISIS 129686 (SEQ ID NO: 394), ISIS 116847 (SEQ ID NO: 395) and ISIS 113529 (SEQ ID NO: 396).
(§1) T-24 cells were treated with 18.75, 37.5, 75, or 150 nM of oligonucleotide mixed with 3 ug/mL LIPOFECTIN per 100 nM oligonucleotide as described by other examples herein. Untreated cells served as controls. Following 16 hours of treatment, RNA was prepared from cells for subsequent real-time PCR analysis.
Human STAT3 mRNA expression levels were quantitated by real-time PCR using primer probe set PPS 2033 and gene target quantities were normalized using Ribogreen as described in other examples herein. A “−” or “+” designation indicates a decrease or increase of STAT 3 mRNA expression, respectively, relative to untreated control cells.

Human STAT3 mRNA [2] = test: Human STAT3 mRNA dose response in T-24 cells, real-time PCR with PPS 199 (Table 18); conditions: 16 hours, − decrease, + increase relative to untreated control
Excerpt: The transitional cell bladder carcinoma cell line T-24 was obtained from the American Type Culture Collection (ATCC) (Manassas, Va.). T-24 cells were routinely cultured in complete McCoy's 5A basal media (Gibco/Life Technologies, Gaithersburg, Md.) supplemented with 10% fetal calf serum (Gibco/Life Technologies, Gaithersburg, Md.), penicillin 100 units per mL, and streptomycin 100 micrograms per mL (Gibco/Life Technologies, Gaithersburg, Md.). Cells were routinely passaged by trypsinization and dilution when they reached 90% confluence. Cells were seeded into 96-well plates (Falcon-Primaria #3872) at a density of 7000 cells/well for use in RT-PCR analysis.
Control oligonucleotides used were ISIS 129695 ([…], SEQ ID NO: 391), ISIS 129694 ([…] SEQ ID NO: 392), ISIS 129690 ([…] SEQ ID NO: 393), ISIS 129686 ([…] SEQ ID NO: 394), ISIS 116847 ([…], SEQ ID NO: 395) and ISIS 113529 ([…] SEQ ID NO: 396). These are universal scrambled control oligonucleotides.
as §1
Human STAT3 mRNA expression levels were quantitated by real-time PCR using primer probe set PPS 199 and gene target quantities were normalized using Ribogreen as described in other examples herein. A “−” or “+” designation indicates a decrease or increase of STAT 3 mRNA expression, respectively, relative to untreated control cells.

Human STAT3 mRNA [3] = test: Human STAT3 mRNA dose response in A549 cells, real-time PCR with PPS 199 (Table 20); conditions: 16 hours, LIPOFECTIN, − decrease, + increase relative to untreated control cells
Method: as §1, with “An additional dose-response experiment was preformed in A549 cells. A549” for “T-24”, “herein. Control oligonucleotides used were ISIS 129686 (SEQ ID NO: 394) and ISIS 129690 (SEQ ID NO: 393).” for “herein.”
Human STAT3 mRNA expression levels were quantitated by real-time PCR using primer probe set PPS 199 and gene target quantities were normalized using Ribogreen as described in other examples herein. A “−” or “+” designation in the dose response results indicates a decrease or increase of STAT 3 mRNA expression, respectively, relative to untreated control cells.

Mouse STAT3 mRNA = test: Inhibition of mouse STAT3 mRNA expression in BCL1 cells (electroporation; RNase protection/Northern blot); design: % mRNA INHIBITION: dose or concentration left out as unconfirmed; conditions: BCL1 cells electroporated with oligonucleotide, RNA collected 24 hours later
Method: The B lymphoma cell line, BCL1 was obtained from ATCC (Rockville, Md.). BCL1 cells were cultured in RPMI 1640 medium.
BCL1 cells (5×10^6 cells in PBS) were transfected with oligonucleotides by electroporation, at 200V, […]. using a BTX Electro Cell Manipulator 600 (Genetronics, San Diego, Calif.). For an initial screen, BCL1 were electroporated with […] oligonucleotide and RNA collected 24 hours later. Controls without oligonucleotide were subjected to the same electroporation conditions.
Total cellular RNA was isolated using the RNEASY7 kit (Qiagen, Santa Clarita, Calif.). RNAse protection experiments were conducted using RIBOQUANT™ kits and template sets according to the manufacturer's instructions (Pharmingen, San Diego, Calif.). Northern blotting was performed as described in Chiang, M-Y. et al. (J. Biol. Chem., 1991, 266, 18162-18171), using a rat cDNA probe prepared by Xho I/Sal I restriction digest of psvsport-1 plasmid (ATCC, Rockville, Md.). mRNA levels were quantitated using a PhosphorImager (Molecular Dynamics, Sunnyvale, Calif.).

Human STAT3 mRNA [4] = test: Inhibition of human STAT3 mRNA expression in U266 cells, Northern blot; conditions: for % mRNA INHIBITION / % mRNA EXPRESSION: U266 cells, 2.5 μM oligonucleotide, electroporation, 24 hours; for % mRNA EXPRESSION: percent of control
Method: U266 human myeloma cell lines (originally obtained from American Type Culture Collection) were maintained in RPMI 1640 medium supplemented with 10% fetal calf serum. Cells (15×10^6 cells in PBS) were transfected with oligonucleotides at 200V with a single 6-millisecond pulse using a BTX Electro Square Porator T820 (Genetronics, San Diego Calif.). The cells were incubated for 24 hours before RNA extraction.
Total cellular RNA was isolated using the Rneasy kit (Qiagen, Santa Clarita, Calif.). Northern blotting was perfomed on 15 μg of RNA using a cDNA probe prepared from MB-MDA 468 RNA by standard RT-PCR followed by a nested primer reaction. Signals were quantitated using a Molecular Dynamics Phosphorimager.
In order to examine the importance of STAT3 expression in multiple myeloma cells, a series of 20mer STAT3 antisense oligonucleotides were designed and synthesized, using phosphorothioate chemistry and incorporating 2′-O-methoxyethyl modifications to improve hybridization affinity and nuclease resistance.

## 129686 (antisense CGTTATTAACCTCCGTTGAA; all phosphorothioate, sugars by position and methylation of C not given here; 2'-MOE wings and deoxy gap) [compound 129686]
Human STAT3 mRNA [1]; 18.75 nM oligonucleotide
  Percent change of STAT3 expression using PPS 2033: +20%
Human STAT3 mRNA [1]; 37.5 nM oligonucleotide
  Percent change of STAT3 expression using PPS 2033: +16%
Human STAT3 mRNA [1]; 75 nM oligonucleotide
  Percent change of STAT3 expression using PPS 2033: +25%
Human STAT3 mRNA [1]; 150 nM oligonucleotide
  Percent change of STAT3 expression using PPS 2033: +9%
Human STAT3 mRNA [2]; 18.75 nM oligonucleotide
  Percent change of STAT3 expression using PPS 199: +2%
Human STAT3 mRNA [2]; 37.5 nM oligonucleotide
  Percent change of STAT3 expression using PPS 199: +1%
Human STAT3 mRNA [2]; 75 nM oligonucleotide
  Percent change of STAT3 expression using PPS 199: −5%
Human STAT3 mRNA [2]; 150 nM oligonucleotide
  Percent change of STAT3 expression using PPS 199: +1%
Human STAT3 mRNA [3]; 18.75 nM oligonucleotide
  Percent change of STAT3 expression in A549 cells using PPS 199: +27%
Human STAT3 mRNA [3]; 37.5 nM oligonucleotide
  Percent change of STAT3 expression in A549 cells using PPS 199: +23%
Human STAT3 mRNA [3]; 75 nM oligonucleotide
  Percent change of STAT3 expression in A549 cells using PPS 199: +22%
Human STAT3 mRNA [3]; 150 nM oligonucleotide
  Percent change of STAT3 expression in A549 cells using PPS 199: +19%

## 17148 (antisense ACTCAAACTGCCCTCCTGCT; listed as DNA, chemistry not fully specified) [compound 17148]
Mouse STAT3 mRNA
  % mRNA INHIBITION: 31%
Mouse STAT3 mRNA; control 100%
  % mRNA EXPRESSION: 69%
Human STAT3 mRNA [4]; Oligo concentration 2.5 μM
  Percent inhibition of STAT3 expression: 8%
Human STAT3 mRNA [4]; Oligo concentration 5 μM
  Percent inhibition of STAT3 expression: 54%
Human STAT3 mRNA [4]; Oligo concentration 10 μM
  Percent inhibition of STAT3 expression: 60%
Human STAT3 mRNA [4]
  % mRNA INHIBITION: 4.9%
  % mRNA EXPRESSION: 95.1%

## 113209 (antisense eA*eA*eA*eA*eG*dT*dG*d[5mC]*d[5mC]*d[5mC]*dA*dG*dA*dT*dT*eG*e[5mC]*eT*e[5mC]*eA) [compound 113209]
Human STAT3 mRNA [4]; Oligo concentration 2.5 μM
  Percent inhibition of STAT3 expression: 43%
Human STAT3 mRNA [4]; Oligo concentration 5 μM
  Percent inhibition of STAT3 expression: 54%
Human STAT3 mRNA [4]; Oligo concentration 10 μM
  Percent inhibition of STAT3 expression: 73%
Human STAT3 mRNA [4]
  % mRNA INHIBITION: 28.6%
  % mRNA EXPRESSION: 71.4%

## 113173 (antisense e[5mC]*e[5mC]*eA*eT*eT*dG*dG*dG*dA*dA*dG*d[5mC]*dT*dG*dT*e[5mC]*eA*e[5mC]*eT*eG) [compound 113173]
Human STAT3 mRNA [4]
  % mRNA EXPRESSION: 119%

## 113184 (antisense e[5mC]*eG*e[5mC]*e[5mC]*eT*d[5mC]*dT*dT*d[5mC]*d[5mC]*dA*dG*dT*d[5mC]*dA*eG*e[5mC]*e[5mC]*eA*eG) [compound 113184]
Human STAT3 mRNA [4]
  % mRNA EXPRESSION: 104.3%

## 113172 (antisense eA*e[5mC]*e[5mC]*eG*eT*dG*dT*dG*dT*d[5mC]*dA*dA*dG*d[5mC]*dT*eG*e[5mC]*eT*eG*eT) [compound 113172]
Human STAT3 mRNA [4]
  % mRNA INHIBITION: 3.9%
  % mRNA EXPRESSION: 96.1%

## 113187 (antisense e[5mC]*e[5mC]*eG*e[5mC]*eT*d[5mC]*d[5mC]*dA*d[5mC]*d[5mC]*dA*d[5mC]*dA*dA*dA*eG*eG*e[5mC]*eA*e[5mC]) [compound 113187]
Human STAT3 mRNA [4]; Oligo concentration 2.5 μM
  Percent inhibition of STAT3 expression: 44%
Human STAT3 mRNA [4]; Oligo concentration 5 μM
  Percent inhibition of STAT3 expression: 56%
Human STAT3 mRNA [4]; Oligo concentration 10 μM
  Percent inhibition of STAT3 expression: 75%
Human STAT3 mRNA [4]
  % mRNA INHIBITION: 44.1%
  % mRNA EXPRESSION: 55.9%

## 113178 (antisense eT*eG*eA*eT*eT*d[5mC]*dT*dT*d[5mC]*d[5mC]*d[5mC]*dA*d[5mC]*dA*dG*eG*e[5mC]*eA*e[5mC]*e[5mC]) [compound 113178]
Human STAT3 mRNA [4]
  % mRNA EXPRESSION: 143.9%

## 113170 (eA*eG*e[5mC]*eT*eG*dA*dT*dT*d[5mC]*d[5mC]*dA*dT*dT*dG*dG*eG*e[5mC]*e[5mC]*eA*eT) [compound 113170]
Human STAT3 mRNA [4]
  % mRNA INHIBITION: 10.4%
  % mRNA EXPRESSION: 89.6%

## 113171 (e[5mC]*e[5mC]*eA*eG*eG*dA*dG*dA*dT*dT*dA*dT*dG*dA*dA*eA*e[5mC]*eA*e[5mC]*e[5mC]) [compound 113171]
Human STAT3 mRNA [4]
  % mRNA EXPRESSION: 110.2%

## 113175 (antisense eG*e[5mC]*eG*eG*e[5mC]*dT*dA*dT*dA*d[5mC]*dT*dG*d[5mC]*dT*dG*eG*eT*e[5mC]*eA*eA) [compound 113175]
Human STAT3 mRNA [4]
  % mRNA INHIBITION: 24.2%
  % mRNA EXPRESSION: 75.8%

## 113211 (antisense eA*eA*eG*e[5mC]*eA*dG*dA*dT*d[5mC]*dA*d[5mC]*d[5mC]*d[5mC]*dA*d[5mC]*eA*eT*eT*e[5mC]*eA) [compound 113211]
Human STAT3 mRNA [4]
  % mRNA EXPRESSION: 116.5%

## 113181 (antisense e[5mC]*e[5mC]*e[5mC]*eG*e[5mC]*d[5mC]*dA*dG*d[5mC]*dT*d[5mC]*dA*d[5mC]*dT*d[5mC]*eA*e[5mC]*eG*eA*eT) [compound 113181]
Human STAT3 mRNA [4]
  % mRNA EXPRESSION: 105.4%

## 113210 (antisense eT*eA*eA*eA*eA*dG*dT*dG*d[5mC]*d[5mC]*d[5mC]*dA*dG*dA*dT*eT*eG*e[5mC]*eT*e[5mC]) [compound 113210]
Human STAT3 mRNA [4]; Oligo concentration 2.5 μM
  Percent inhibition of STAT3 expression: 36%
Human STAT3 mRNA [4]; Oligo concentration 5 μM
  Percent inhibition of STAT3 expression: 50%
Human STAT3 mRNA [4]; Oligo concentration 10 μM
  Percent inhibition of STAT3 expression: 76%
Human STAT3 mRNA [4]
  % mRNA INHIBITION: 27.8%
  % mRNA EXPRESSION: 72.2%
